This series relates to rodent carcinogenicity bioassays, tumor incidence. The experiment in a line: CCRIS carcinogenicity studies. A digest of the protocol:
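NCI-built, expert-reviewed records of carcinogenicity and related test outcomes (mutagenicity, tumor promotion/inhibition) compiled from published and report sources, historical span 1985-2011, not updated.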

Activity calls are given as the source filed them. No rule for the calls is given here.

In the case of `COP(=O)(OC)OC=C(Cl)Cl`, the carcinogen call runs as follows: (Species: MOUSE, Strain/Sex: B6C3F1/FEMALE, Route: GAVAGE, Dose: 0, 20, 40 MG/KG IN CORN OIL 5 D/WK FOR 103 WK (STUDY DURATION: 104 WK), Dose: 0, 20, 40 MG/KG IN CORN OIL 5 D/WK FOR 103 WK (STUDY DURATION: 104 WK), Tumor Site: Type of Lesion: FORESTOMACH: CARCINOMA, SQUAMOUS CELL PAPILLOMA) “active; positive”; (Species: MOUSE, Strain/Sex: B6C3F1/FEMALE, Route: GAVAGE, Dose: 0, 20, 40 MG/KG IN CORN OIL 5 D/WK FOR 103 WK (STUDY DURATION: 105 WK), Dose: 0, 20, 40 MG/KG IN CORN OIL 5 D/WK FOR 103 WK (STUDY DURATION: 105 WK), Tumor Site: Type of Lesion: FORESTOMACH: SQUAMOUS PAPILLOMA, SQUAMOUS CELL PAPILLOMA OR CARCINOMA) “active; positive”; (Species: MOUSE, Strain/Sex: B6C3F1/FEMALE, Route: ORAL, Dose: 0, 317, 635 PPM IN DIET, TWA, Dose: 0, 317, 635 PPM IN DIET, TWA) “inactive; negative”; (Species: MOUSE, Strain/Sex: B6C3F1/MALE, Route: GAVAGE, Dose: 0, 10, 20 MG/KG IN CORN OIL 5 D/WK FOR 103 WK (STUDY DURATION: 104 WK), Dose: 0, 10, 20 MG/KG IN CORN OIL 5 D/WK FOR 103 WK (STUDY DURATION: 104 WK), Tumor Site: Type of Lesion: FORESTOMACH: SQUAMOUS CELL PAPILLOMA) “active; positive”; (Species: MOUSE, Strain/Sex: B6C3F1/MALE, Route: GAVAGE, Dose: 0, 10, 20 MG/KG IN CORN OIL 5 D/WK FOR 103 WK (STUDY DURATION: 105 WK), Dose: 0, 10, 20 MG/KG IN CORN OIL 5 D/WK FOR 103 WK (STUDY DURATION: 105 WK), Tumor Site: Type of Lesion: FORESTOMACH: SQUAMOUS PAPILLOMA) “active; positive”; (Species: MOUSE, Strain/Sex: B6C3F1/MALE, Route: ORAL, Dose: 0, 317, 635 PPM IN DIET, TWA, Dose: 0, 317, 635 PPM IN DIET, TWA) “inactive; negative”. In addition, the carcinogen call (Species: RAT, Strain/Sex: BDIX/BLN/FEMALE, Route: INTRAGASTRIC, Dose: 0, 0.1 MG IN 0.2 ML WATER 2/WK FOR 60 WK (STUDY DURATION: 111 WK)) is “inactive; negative”; the carcinogen call (Species: RAT, Strain/Sex: BDIX/BLN/FEMALE, Route: INTRAGASTRIC, Dose: 0, 0.1 MG IN 0.2 ML WATER 3/WK FOR 60 WK (STUDY DURATION: 111 WK)) is “inactive; negative”; the carcinogen call (Species: RAT, Strain/Sex: BDIX/BLN/MALE, Route: INTRAGASTRIC, Dose: 0, 0.1 MG IN 0.2 ML WATER 2/WK FOR 60 WK (STUDY DURATION: 111 WK)) was “inactive; negative”; the carcinogen call (Species: RAT, Strain/Sex: BDIX/BLN/MALE, Route: INTRAGASTRIC, Dose: 0, 0.1 MG IN 0.2 ML WATER 3/WK FOR 60 WK (STUDY DURATION: 111 WK)) is “inactive; negative”; the carcinogen call (Species: RAT, Strain/Sex: F344/FEMALE, Route: GAVAGE, Dose: 0, 4, 8 MG/KG IN CORN OIL 5 D/WK FOR 103 WK (STUDY DURATION: 104 WK), Dose: 0, 4, 8 MG/KG IN CORN OIL 5 D/WK FOR 103 WK (STUDY DURATION: 104 WK), Tumor Site: Type of Lesion: PANCREAS: ACINAR CELL ADENOMA, HEMATOPOIETIC SYSTEM: MONONUCLEAR CELL LEUKEMIA, MAMMARY GLAND: FIBROADENOMA, CARCINOMA, Tumor Site: Type of Lesion: PANCREAS: ACINAR CELL ADENOMA, HEMATOPOIETIC SYSTEM: MONONUCLEAR CELL LEUKEMIA, MAMMARY GLAND: FIBROADENOMA, CARCINOMA) was “active; positive”; the carcinogen call (Species: RAT, Strain/Sex: F344/FEMALE, Route: GAVAGE, Dose: 0, 4, 8 MG/KG IN CORN OIL 5 D/WK FOR 103 WK (STUDY DURATION: 105 WK), Dose: 0, 4, 8 MG/KG IN CORN OIL 5 D/WK FOR 103 WK (STUDY DURATION: 105 WK), Tumor Site: Type of Lesion: PANCREAS: ADENOMA, MAMMARY GLAND: FIBROADENOMA) was “equivocal”. In addition, the carcinogen call was “active; positive” (Species: RAT, Strain/Sex: F344/MALE, Route: GAVAGE, Dose: 0, 4, 8 MG/KG IN CORN OIL 5 D/WK FOR 103 WK (STUDY DURATION: 104 WK), Dose: 0, 4, 8 MG/KG IN CORN OIL 5 D/WK FOR 103 WK (STUDY DURATION: 104 WK), Tumor Site: Type of Lesion: PANCREAS: ACINAR CELL ADENOMA, HEMATOPOIETIC SYSTEM: MONONUCLEAR CELL LEUKEMIA); “active; positive” (Species: RAT, Strain/Sex: F344/MALE, Route: GAVAGE, Dose: 0, 4, 8 MG/KG IN CORN OIL 5 D/WK FOR 103 WK (STUDY DURATION: 105 WK), Dose: 0, 4, 8 MG/KG IN CORN OIL 5 D/WK FOR 103 WK (STUDY DURATION: 105 WK), Tumor Site: Type of Lesion: PANCREAS: ADENOMA, HEMATOPOIETIC SYSTEM: MONONUCLEAR CELL LEUKEMIA); “inactive; negative” (Species: RAT, Strain/Sex: OSBORNE-MENDEL/FEMALE, Route: ORAL, Dose: 0, 318, 635 PPM IN DIET, TWA, Dose: 0, 318, 635 PPM IN DIET, TWA); “inactive; negative” (Species: RAT, Strain/Sex: OSBORNE-MENDEL/MALE, Route: ORAL, Dose: 0, 150, 326 PPM IN DIET, TWA, Dose: 0, 150, 326 PPM IN DIET, TWA).

For `CN(N)C=O`, the carcinogen call is “active; positive” (Species: MOUSE, Strain/Sex: SWISS/FEMALE, Route: ORAL, Dose: 0, 0.0078% SOLUTION IN DRINKING WATER STARTING AT 6 WK OF AGE FOR LIFE FOR AVERAGE DAILY INTAKE OF 0 OR 0.80 MG (STUDY D, Tumor Site: Type of Lesion: LIVER: HEPATOMA OR CARCINOMA, LUNG: ADENOMA OR ADENOCARCINOMA) and “active; positive” (Species: MOUSE, Strain/Sex: SWISS/MALE, Route: ORAL, Dose: 0, 0.0078% SOLUTION IN DRINKING WATER STARTING AT 6 WK OF AGE FOR LIFE FOR AVERAGE DAILY INTAKE OF 0 OR 0.99 MG (STUDY D, Tumor Site: Type of Lesion: LIVER: HEPATOMA OR CARCINOMA, LUNG: ADENOMA OR ADENOCARCINOMA, GALLBLADDER: ADENOMA, BILE DUCT: CHOLANGIOMA OR CHOLANGIO, Tumor Site: Type of Lesion: LIVER: HEPATOMA OR CARCINOMA, LUNG: ADENOMA OR ADENOCARCINOMA, GALLBLADDER: ADENOMA, BILE DUCT: CHOLANGIOMA OR CHOLANGIO).

Turning to `CCCCCl`, the carcinogen call by setting is: (Species: MOUSE, Strain/Sex: B6C3F1/FEMALE, Route: GAVAGE, Dose: 0, 250, 500 MG/KG IN CORN OIL 5 D/WK FOR 103 WK, Dose: 0, 250, 500 MG/KG IN CORN OIL 5 D/WK FOR 103 WK) “inactive; negative”; (Species: MOUSE, Strain/Sex: B6C3F1/MALE, Route: GAVAGE, Dose: 0, 500, 1000 MG/KG IN CORN OIL 5 D/WK FOR 103 WK, Dose: 0, 500, 1000 MG/KG IN CORN OIL 5 D/WK FOR 103 WK) “inactive; negative”; (Species: RAT, Strain/Sex: F344/FEMALE, Route: GAVAGE, Dose: 0, 60, 120 MG/KG IN CORN OIL 5 D/WK FOR 103 WK, Dose: 0, 60, 120 MG/KG IN CORN OIL 5 D/WK FOR 103 WK) “inactive; negative”; (Species: RAT, Strain/Sex: F344/MALE, Route: GAVAGE, Dose: 0, 60, 120 MG/KG IN CORN OIL 5 D/WK FOR 103 WK, Dose: 0, 60, 120 MG/KG IN CORN OIL 5 D/WK FOR 103 WK) “inactive; negative”.

Regarding `Clc1cccc(-c2ccc(Cl)c(Cl)c2Cl)c1Cl`, the carcinogen call is, setting by setting: (Species: MOUSE, Strain/Sex: BALB/MALE, Route: ORAL, Dose: 300 MG/KG IN DIET FOR 6 OR 11 MO, Tumor Site: Type of Lesion: LIVER: HEPATOMA) “active; positive”; (Species: RAT, Strain/Sex: F344/FEMALE, Route: ORAL, Dose: 0, 25, 50, 100 PPM IN DIET FOR 104-105 WK (STUDY DURATION: 104-105 WK), Dose: 0, 25, 50, 100 PPM IN DIET FOR 104-105 WK (STUDY DURATION: 104-105 WK), Tumor Site: Type of Lesion: LIVER: ADENOMA, STOMACH: ADENOMA, ADENOCARCINOMA) “equivocal”; (Species: RAT, Strain/Sex: F344/MALE, Route: ORAL, Dose: 0, 25, 50, 100 PPM IN DIET FOR 104-105 WK (STUDY DURATION: 104-105 WK), Dose: 0, 25, 50, 100 PPM IN DIET FOR 104-105 WK (STUDY DURATION: 104-105 WK), Tumor Site: Type of Lesion: LIVER: HEPATOCELLULAR ADENOMA, HEPATOCELLULAR CARCINOMA, GASTROINTESTINAL SYSTEM: ADENOCARCINOMA OR CARCINOMA) “equivocal”; (Species: RAT, Strain/Sex: SPRAGUE-DAWLEY/FEMALE, Route: ORAL, Dose: 0, 25, 50, 100 PPM IN DIET FOR THE DURATION OF STUDY (STUDY DURATION: 24 MO), Dose: 0, 25, 50, 100 PPM IN DIET FOR THE DURATION OF STUDY (STUDY DURATION: 24 MO), Tumor Site: Type of Lesion: LIVER: TUMOR) “active; positive”; (Species: RAT, Strain/Sex: SPRAGUE-DAWLEY/MALE, Route: ORAL, Dose: 0, 25, 50, 100 PPM IN DIET FOR THE DURATION OF STUDY (STUDY DURATION: 24 MO), Dose: 0, 25, 50, 100 PPM IN DIET FOR THE DURATION OF STUDY (STUDY DURATION: 24 MO), Tumor Site: Type of Lesion: THYROID GLAND: ADENOMA OR CARCINOMA) “active; positive”.

These data come from PubChem BioAssay AID1259411 (Chemical Carcinogenesis Research Information System (CCRIS), 2018).
